# Assay results: patent US8859628B2, “Method for preventing, treating and diagnosing disorders of protein aggregation” (priority 2003, dated 2014)
# “Also recorded” adds a separate entry of the source. Marks after values point to notes of the source that are not given here.
# Tests used:
# [1] = test system: TgCRND8 mice; assay: Cerebral amyloid plaque burden (anti-Aβ immunostaining, image analysis); format: in vivo, mouse
# Description: (§1) Cerebral amyloid burden—Brains were removed and one hemisphere was fixed in 4% paraformaldehyde and embedded in paraffin wax in the mid saggital plane. To generate sets of systematic uniform random sections, 5 μm serial sections were collected across the entire hemisphere. Sets of sections at […] intervals were used for analyses (10-14 sections/set). Plaque were identified after antigen retrieval with formic acid, and incubated with primary anti-Aβ antibody (Dako M-0872), followed by secondary antibody (Dako StreptABCcomplex/horseradish kit). End products were visualized with DAB counter-stained with hematoxylin. Amyloid plaque burden was assessed using Leco IA-3001 image analysis software interfaced with Leica microscope and Hitachi KP-M1U CCD video camera. Vascular burden was analyzed similarly and a dissector was used to measure the diameter of affected vessels.
# as §1, with “camera.” for “camera. Vascular burden was analyzed similarly and a dissector was used to measure the diameter of affected vessels.”
# [2] = test system: TgCRND8 mice; assay: Cerebral Aβ content (Aβ40 and Aβ42 kits on hemi-brain homogenates); format: in vivo, mouse; design: Total Aβ: unit not given here
# Description: (§2) Plasma and Cerebral Aβ Content—Hemi-brain samples were homogenized in a buffered sucrose solution, followed by either 0.4% diethylamine/100 mM NaCl for soluble Aβ levels or cold formic acid for the isolation of total Aβ. After neutralization the samples were diluted and analyzed for Aβ40 and Aβ42 using commercially available kits (BIOSOURCE International). Each hemisphere was analyzed in triplicate with the mean±SEM reported. Western blot analyses were performed on all fractions using urea gels for Aβ species analyses. Aβ was detected using 6E10 (BIOSOURCE International) and Enhanced Chemiluminenscence (Amersham).
# (§3) Plasma and Cerebral Aβ Content—Hemi-brain samples were homogenized in a buffered sucrose solution, followed by either 0.4% diethylamine/100 mM NaCl for soluble Aβ levels or cold formic acid for the isolation of total Aβ. After neutralization the samples were diluted and analyzed for Aβ40 and Aβ42 using commercially available kits (BIOSOURCE International). Each hemisphere was analyzed in triplicate with the mean±SEM reported.
# [3] = test system: TgCRND8 mice; assay: Plasma Aβ levels; format: in vivo, mouse
# Description: as §2, §3
# [4] = test system: TgCRND8 mice; assay: Gliosis quantitation (GFAP astrocytes, CD68 microglia); format: in vivo, mouse; settings: prevention
# From the text: Gliosis Quantitation—Five randomly selected, evenly spaced, sagittal sections were collected from paraformaldehyde-fixed and frozen hemispheres of treated and control mice. Sections were immunolabelled for astrocytes with anti-rat GFAP IgG2a (Dako; diluted 1:50) and for microglia with anti-rat CD68 IgG2b (Dako; 1:50).
# Serial sagittal sections were stained with the astrocytic marker glial fibrillary acidic protein (GFAP) and quantitated for percent brain area covered by astrogliosis.
# [5] = test system: TgCRND8 mice; assay: Morris Water Maze, spatial reference memory version, five-day trial paradigm (prevention study); format: in vivo, mouse; settings: 6 months of age
# Description: Age and sex-matched cohorts of TgCRND8 mice and non-transgenic littermates (n=35 in each cohort) were either untreated, or were given a compound of the present invention as indicated below at 30 mg/day/mouse beginning at age of about 6 weeks. The mice were followed for outcome measures cognitive function, brain Aβ levels, brain pathology, and survival at 4 months and 6 months of age.
# Two cohorts entered the study at 6 weeks of age and outcomes were analyzed at 4- and 6-months of age. The body weight, coat characteristics and in cage behavior was monitored. All experiments were performed according to the Canadian Council on Animal Care guidelines.
# Behavioral tests—After non-spatial pre-training, mice underwent place discrimination training for 5 days with 4 trials per day. Behavioral data was analyzed using a mixed model of factorial analysis of variance (ANOVA) with drug or genotype and training sessions as repeated measure factors.
# The cognitive function of TgCRND8 mice was assessed using the spatial reference memory version of the Morris Water Maze using a five-day trial paradigm (FIGS. 1C-1H). […] The improved performance was also not due to nutritional or caloric effects because body weight, activity, and coat condition were not different between treated and untreated cohorts. […] Gender effects were not significant between any treatment group (p=0.85).
# [6] = test system: TgCRND8 mice; settings: mouse, in vivo
# From the text: Animals were sacrificed after one month of treatment and analysed for pathological outcomes.
# In these experiments, the dosage and oral administration of compounds, and the behavioral and neurochemical assays were the same as those employed in the above treatment experiments.
# [7] = test system: TgCRND8 mice; assay: Vascular amyloid burden; format: in vivo, mouse; settings: 6 months of age
# Description: as §1
# Alzheimer's disease is characterized by the presence of both parenchymal and vascular amyloid deposits. In untreated 6 month old TgCRND8 mice approximately 0.03% of the brain area is associated with vascular amyloid.
# [8] = test system: TgPS1xAPP mice; assay: Plaque burden in double transgenic PS1 x APP model (prophylactic trial); format: in vivo, mouse; settings: 2 months of age
# From the text: Tg PS1 x APP mice are an enhanced model of Alzheimer's disease which express a mutant human PS1 transgene encoding two familial mutations (M146L and L286V) in conjunction with the human APP transgene encoding the Indiana and Swedish familial mutations. These animals develop robust expression of cerebral Aβ levels and amyloid deposition by 30-45 days of age.
# [9] = test system: TgCRND8 mice; assay: Survival census (Kaplan-Meier); format: in vivo, mouse; settings: at 175 days; n=35 per group
# Description: Survival Census—The probability of survival was assessed by the Kaplan-Meier technique, computing the probability of survival at every occurrence of death, thus making it suitable for small sample sizes. For the analyses of survival, 35 mice were used for each treatment group. The comparison between treatments was reported using the Tarone-Ware test.
# [10] = 1 month treatment from 5 months of age
# [11] = 1 month treatment, 30 mg/mouse/day from 5 months, analyzed at 6 months of age
# [12] = 4 month prevention, 30 mg/mouse/day from 6 weeks of age
# [13] = 6 month prevention, 30 mg/mouse/day from 6 weeks of age
# [14] = prevention, 6 months of age, vs untreated TgCRND8
# [15] = prevention, four months of age, vs untreated TgCRND8
smiles,measurement,setting,value
"O[C@H]1[C@H](O)[C@@H](O)[C@H](O)[C@@H](O)[C@@H]1O [Scyllo-Inositol, scyllo-inositol]",plaque burden vs untreated,[1]; [10],significantly decreased the plaque burden and the Aβ load
same,Plaque Area,[1]; [11],420027 ± 14986* μm^2
same,Plaque Count,[1]; [11],1260 ± 27
same,Total Plaque Area/Total Brain Area,[1]; [11],0.119 ± 0.010 %
same,Plaque Area,[1]; [12],63847 ± 2895 μm^2
same,Plaque Count,[1]; [12],598 ± 19
same,Total Plaque Area/Total Brain Area,[1]; [12],0.015 ± 0.001 %
same,Plaque Area,[1]; [13],262379 ± 5373† μm^2
same,Plaque Count,[1]; [13],774 ± 10
same,Total Plaque Area/Total Brain Area,[1]; [13],0.079 ± 0.013 %
same,amyloid/plaque burden vs untreated (words),"[1]; 6 months of age, prevention",significantly decreased amyloid burden and gliosis; also recorded: decreases plaque deposition
same,mean plaque size,"[1]; prevention, 4 months of age",103±4 μm^2
same,decrease in brain area covered with plaques,"[1]; prevention, 6 months of age",35%
same,mean plaque size,"[1]; prevention, 6 months of age",339±10 μm^2
same,reduction in plaque number,"[1]; prevention, 6 months of age",20%
same,Aβ load vs untreated,[2]; [10],significantly decreased the plaque burden and the Aβ load
same,Total Aβ,[2]; [11],15194 ± 579
same,Total Aβ,[2]; [12],5089 ± 173
same,Total Aβ,[2]; [13],15621 ± 151
same,reduction in Aβ40 levels,[2]; [14],32%
same,reduction in Aβ42,[2]; [14],20%
same,decrease of total brain Aβ40,[2]; [15],62%
same,decrease of total brain Aβ42,[2]; [15],22%
same,Plasma Aβ Levels,[3]; 1 month treatment,1980 ± 146 pg/mL
same,effect on plasma Aβ levels in comparison to untreated (words),[3]; [10],"Neither myo-inositol, epi-inositol nor scyllo-inositol treatment had any effect on plasma Aβ levels"
same,Plasma Aβ Levels Aβ40,[3]; 2 month treatment,4507 ± 207 pg/mL
same,Plasma Aβ Levels Aβ42,[3]; 2 month treatment,3035 ± 236 pg/mL
same,Plasma Aβ Levels,[3]; 4 month prevention,952 ± 49 pg/mL
same,Plasma Aβ Levels,[3]; 6 month prevention,905 ± 55 pg/mL
same,effect on plasma Aβ levels in comparison to untreated (words),"[3]; prevention, 4- and 6-months of age",Neither epi-inositol nor scyllo-inositol treatment had any effect on plasma Aβ levels
same,astrogliosis/gliosis vs untreated,[4]; 6 months of age,significantly decreased amyloid burden and gliosis
same,"astrogliosis, percent brain area covered (GFAP)",[4]; 6-months of age,0.269±0.028%
same,"microglial activation, % brain area",[4]; 6 months,0.20±0.008%
same,"cognitive function, treated TgCRND8 mice vs non-Tg littermates (words)",[5],indistinguishable from non-Tg littermates on all days; also recorded: approached that of non-Tg littermates
same,"cognitive function, treated vs untreated TgCRND8 mice (words)",[5],performed significantly better than untreated TgCRND8 mice
same,effects on blood chemistry or organ function,[6],do not exhibit obvious deleterious effects on blood chemistry or organ function
same,mean size of cerebrovascular plaques,[7]; prevention,154±16
same,vascular amyloid burden vs untreated (words),"[7]; prevention, listed as Scyllo-inositol",significantly decreased the total vascular load
same,vascular amyloid burden vs untreated (words),"[7]; prevention, listed as scyllo-inositol",significantly decreased the vascular amyloid burden
same,vascular amyloid deposition in small vessels,[7]; smaller vessels,56±2%
same,amyloid/plaque burden vs untreated (words),[8]; listed as Scyllo-inositol,significantly decreased amyloid burden
same,amyloid/plaque burden vs untreated (words),[8]; listed as scyllo-inositol,significantly reduced
same,% brain area covered in plaques,[8]; treated from weaning,0.065±0.016%
same,Plaque Count,[8]; treated from weaning,1514±510
same,mean plaque size,[8]; treated from weaning,149±5 μm^2
same,survival,[9],72%
